Laboratory results reported in US20260242353A1, “HETEROARYL DERIVATIVES AS DDRs INHIBITORS” (CHIESI FARMACEUTICI S.P.A., priority 2022, published 2026).

What was measured:
[1] = target: T1, DDR1 (Homo sapiens, UniProt Q08345); experiment: LanthaScreen Europium Kinase Binding assay, DDR1; settings: 5 nM DDR1, 20 nM Kinase Tracer 178, 1 h at rt; Ki from IC50 by Cheng-Prusoff; read-out: Ki DDR1
T1 construct: purchased Carna Biosciences
Procedure: (§1) DDR1 and DDR2 binding assays were performed using Life Technologies LanthaScreen™ Europium Kinase Binding assay. The compounds were incubated with 5 nM DDR1 (Carna Biosciences) or 5 nM DDR2 (Life Technologies) for 1 h at rt in white 384-well OptiPlate (PerkinElmer), containing 20 nM or 10 nM Kinase Tracer 178 respectively and 2 nM Europium labelled anti-GST antibody (Life Technologies) in assay buffer (50 mM HEPES pH 7.5, 10 mM MgCI2, 1 mM EGTA and 0.01% BRIJ35). The ratio of fluorescence emission 665 nm/615 nm after excitation at 340 nm was obtained using the Tecan Spark 20M plate reader. IC50 values were determined in GraphPad Prism 7.0 software, using 4 parameter model: log(inhibitor) vs. response. IC50 values were converted in Ki using the Cheng-Prusoff equation (Ki=IC50/(1+[Tracer]/Kd).

[2] = target: T2, DDR2 (Homo sapiens, UniProt Q16832); experiment: LanthaScreen Europium Kinase Binding assay, DDR2; settings: 5 nM DDR2, 10 nM Kinase Tracer 178, 1 h at rt; Ki from IC50 by Cheng-Prusoff; read-out: Ki DDR2
T2 construct: purchased Life Technologies
T2 sequence (Q16832 22-855): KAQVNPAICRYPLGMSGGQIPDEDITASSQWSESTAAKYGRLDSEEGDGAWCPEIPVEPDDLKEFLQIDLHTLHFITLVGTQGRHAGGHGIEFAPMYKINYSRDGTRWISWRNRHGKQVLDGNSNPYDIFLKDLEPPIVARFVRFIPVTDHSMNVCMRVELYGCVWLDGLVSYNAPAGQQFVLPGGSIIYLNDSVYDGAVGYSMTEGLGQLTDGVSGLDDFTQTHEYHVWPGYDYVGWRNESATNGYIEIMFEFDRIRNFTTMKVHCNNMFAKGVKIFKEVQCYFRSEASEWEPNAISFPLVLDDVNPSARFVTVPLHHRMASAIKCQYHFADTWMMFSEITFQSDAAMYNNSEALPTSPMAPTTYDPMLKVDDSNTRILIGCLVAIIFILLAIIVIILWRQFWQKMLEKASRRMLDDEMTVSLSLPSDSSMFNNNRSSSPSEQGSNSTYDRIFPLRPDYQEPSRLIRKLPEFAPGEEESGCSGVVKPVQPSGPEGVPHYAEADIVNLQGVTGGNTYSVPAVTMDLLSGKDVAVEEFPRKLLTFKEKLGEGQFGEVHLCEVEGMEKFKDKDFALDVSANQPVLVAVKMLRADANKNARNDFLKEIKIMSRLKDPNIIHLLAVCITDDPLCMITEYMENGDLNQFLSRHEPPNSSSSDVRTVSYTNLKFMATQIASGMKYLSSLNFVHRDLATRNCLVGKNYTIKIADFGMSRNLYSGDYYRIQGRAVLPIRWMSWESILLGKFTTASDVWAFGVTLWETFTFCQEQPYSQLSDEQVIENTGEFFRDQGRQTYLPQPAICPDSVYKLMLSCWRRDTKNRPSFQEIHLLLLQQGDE
Procedure: as §1

T1 sequence (Q08345 19-913): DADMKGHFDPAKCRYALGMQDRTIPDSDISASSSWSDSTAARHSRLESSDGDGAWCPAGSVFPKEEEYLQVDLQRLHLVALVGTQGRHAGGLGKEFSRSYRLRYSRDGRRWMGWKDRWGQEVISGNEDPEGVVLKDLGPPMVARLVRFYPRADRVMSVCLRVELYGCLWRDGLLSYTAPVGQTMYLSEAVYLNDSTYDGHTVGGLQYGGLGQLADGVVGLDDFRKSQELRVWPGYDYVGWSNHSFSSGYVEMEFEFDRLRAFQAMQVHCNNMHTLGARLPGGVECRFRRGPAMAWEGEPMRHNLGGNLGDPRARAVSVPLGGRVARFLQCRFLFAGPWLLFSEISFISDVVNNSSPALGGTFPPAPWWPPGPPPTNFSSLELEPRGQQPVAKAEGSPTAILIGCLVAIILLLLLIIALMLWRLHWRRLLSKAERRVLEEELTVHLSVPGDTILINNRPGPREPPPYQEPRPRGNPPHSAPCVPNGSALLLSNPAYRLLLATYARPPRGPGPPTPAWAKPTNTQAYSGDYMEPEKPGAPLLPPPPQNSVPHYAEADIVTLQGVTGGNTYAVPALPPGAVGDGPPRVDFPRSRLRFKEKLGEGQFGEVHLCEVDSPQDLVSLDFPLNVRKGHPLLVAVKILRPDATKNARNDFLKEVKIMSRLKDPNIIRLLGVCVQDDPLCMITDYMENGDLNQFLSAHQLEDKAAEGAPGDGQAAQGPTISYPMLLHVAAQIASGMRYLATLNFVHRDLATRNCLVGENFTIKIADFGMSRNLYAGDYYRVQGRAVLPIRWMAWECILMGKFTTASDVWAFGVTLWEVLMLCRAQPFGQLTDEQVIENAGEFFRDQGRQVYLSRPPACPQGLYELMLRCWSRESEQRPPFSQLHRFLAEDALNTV

Ki [1] [nM]	Ki [2] [nM]	Compound
< 5	< 5	O=C(Nc1cncc(C(F)(F)F)c1)c1ccc(OC(F)F)c(C2CCN(c3cncnc3)C2)c1 (single isomer, unassigned) [Example 116, 4-(difluoromethoxy)-3-(1-(pyrimidin-5-yl)pyrrolidin-3-yl)-N-(5-(trifluoromethyl)pyridin-3-yl)benzamide]
< 5	5 to 25	NC(=O)c1cc(N2CCC(c3cc(C(=O)Nc4cncc(C(F)(F)F)c4)ccc3OC(F)F)C2)ccn1 (single isomer, unassigned) [Example 119, 4-(3-(2-(difluoromethoxy)-5-((5-(trifluoromethyl)pyridin-3-yl)carbamoyl)phenyl)pyrrolidin-1-yl)picolinamide]
< 5	5 to 25	Cc1ccc(C(=O)Nc2cncc(C(F)(F)F)c2)cc1C1CN(c2cncnc2)CC1O (single isomer, unassigned) [Example 122, 3-(4-hydroxy-1-(pyrimidin-5-yl)pyrrolidin-3-yl)-4-methyl-N-(5-(trifluoromethyl)pyridin-3-yl)benzamide]
< 5	< 5	Cc1ccc(C(=O)Nc2cncc(C(F)(F)F)c2)cc1[C@@H]1CCN(c2cncc(C(N)=O)c2)C1 [Example 1, (S)-5-(3-(2-methyl-5-((5-(trifluoromethyl)pyridin-3-yl)carbamoyl)phenyl)pyrrolidin-1-yl)nicotinamide]
< 5	5 to 25	Cc1ccc(C(=O)Nc2cncc(C(F)(F)F)c2)cc1[C@H]1CCN(c2cncc(C(N)=O)c2)C1 [Example 2, (R)-5-(3-(2-methyl-5-((5-(trifluoromethyl)pyridin-3-yl)carbamoyl)phenyl)pyrrolidin-1-yl)nicotinamide]
< 5	< 5	Cc1ccc(C(=O)Nc2cc(C(C)(C)C)n(C)n2)cc1[C@@H]1CCN(c2cncc(C(N)=O)c2)C1 [Example 3, (S)-5-(3-(5-((5-(tert-butyl)-1-methyl-1H-pyrazol-3-yl)carbamoyl)-2-methylphenyl)pyrrolidin-1-yl)nicotinamide]
< 5	5 to 25	Cc1ccc(C(=O)Nc2cc(C(F)(F)F)ncn2)cc1[C@@H]1CCN(c2cncc(C#N)c2)C1 [Example 8, (S)-3-(1-(5-cyanopyridin-3-yl)pyrrolidin-3-yl)-4-methyl-N-(6-(trifluoromethyl)pyrimidin-4-yl)benzamide]

The next lines start with the molecule.

Compound	Ki [1] [nM]	Ki [2] [nM]
Cc1ccc(C(=O)Nc2cncc(C(F)(F)F)c2)cc1[C@@H]1CN(c2cncnc2)C[C@H]1CO (racemic) [Example 104, 3-((3R,4S)-3-(4-(hydroxymethyl)-1-(pyrimidin-5-yl)pyrrolidin-3-yl)-4-methyl-N-(5-(trifluoromethyl)pyridin-3-yl)benzamide and 3-((3S,4R)-3-(4-(hydroxymethyl)-1-(pyrimidin-5-yl)pyrrolidin-3-yl)-4-methyl-N-(5-(trifluoromethyl)pyridin-3-yl)benzamide]	< 5	5 to 25
Cc1ccc(C(=O)Nc2cncc(C(F)(F)F)c2)cc1[C@@H]1CN(c2cncnc2)C[C@H]1O (racemic) [Example 105, 3-((3S,4R)-3-(4-hydroxy-1-(pyrimidin-5-yl)pyrrolidin-3-yl)-4-methyl-N-(5-(trifluoromethyl)pyridin-3-yl)benzamide and 3-((3R,4S)-4-hydroxy-1-(pyrimidin-5-yl)pyrrolidin-3-yl)-4-methyl-N-(5-(trifluoromethyl)pyridin-3-yl)benzamide]	< 5	5 to 25
COc1ccc(C(=O)Nc2cncc(C(F)(F)F)c2)cc1C1CCN(c2cncnc2)C1 (racemic) [Example 111, 4-methoxy-3-(1-(pyrimidin-5-yl)pyrrolidin-3-yl)-N-(5-(trifluoromethyl)pyridin-3-yl)benzamide]	< 5	5 to 25
COc1ccc(C(=O)Nc2cncc(C(F)(F)F)c2)cc1C1CCN(c2cncnc2)C1 (single isomer, unassigned) [Example 109, 4-methoxy-3-(1-(pyrimidin-5-yl)pyrrolidin-3-yl)-N-(5-(trifluoromethyl)pyridin-3-yl)benzamide]	< 5	< 5
COc1ccc(C(=O)Nc2cncc(C(F)(F)F)c2)cc1C1CCN(c2cncnc2)C1 (single isomer, unassigned) [Example 110, 4-methoxy-3-(1-(pyrimidin-5-yl)pyrrolidin-3-yl)-N-(5-(trifluoromethyl)pyridin-3-yl)benzamide]	< 5	5 to 25
COc1ccc(C(=O)Nc2cncc(C(F)(F)F)c2)cc1C1CCN(c2cnn3cccnc23)C1 (single isomer, unassigned) [Example 114, 4-methoxy-3-(1-(pyrazolo[1,5-a]pyrimidin-3-yl)pyrrolidin-3-yl)-N-(5-(trifluoromethyl)pyridin-3-yl)benzamide]	< 5	5 to 25
COc1ccc(C(=O)Nc2cncc(C(F)(F)F)c2)cc1C1CCN(c2cnn3cccnc23)C1 (single isomer, unassigned) [Example 115, 4-methoxy-3-(1-(pyrazolo[1,5-a]pyrimidin-3-yl)pyrrolidin-3-yl)-N-(5-(trifluoromethyl)pyridin-3-yl)benzamide]	< 5	5 to 25
O=C(Nc1cncc(C(F)(F)F)c1)c1ccc(OC(F)F)c(C2CCN(c3cncnc3)C2)c1 (single isomer, unassigned) [Example 117, 4-(difluoromethoxy)-3-(1-(pyrimidin-5-yl)pyrrolidin-3-yl)-N-(5-(trifluoromethyl)pyridin-3-yl)benzamide]	< 5	< 5
NC(=O)c1cc(N2CCC(c3cc(C(=O)Nc4cncc(C(F)(F)F)c4)ccc3OC(F)F)C2)ccn1 (single isomer, unassigned) [Example 118, 4-(3-(2-(difluoromethoxy)-5-((5-(trifluoromethyl)pyridin-3-yl)carbamoyl)phenyl)pyrrolidin-1-yl)picolinamide]	< 5	5 to 25
O=C(Nc1cncc(C(F)(F)F)c1)c1ccc(C(F)F)c(C2CCN(c3cncnc3)C2)c1 (single isomer, unassigned) [Example 121]	< 5	< 5
Cc1ccc(C(=O)Nc2cncc(C(F)(F)F)c2)cc1C1CCN(c2cnn3cccnc23)C1 (stereo in doubt) [Example 90, 4-methyl-3-[(3R)-1-pyrazolo[1,5-a]pyrimidin-3-ylpyrrolidin-3-yl]-N-[5-(trifluoromethyl)-3-pyridyl]benzamide]	< 5	5 to 25
Cc1ccc(C(=O)Nc2cc(C(C)(C)C(F)(F)F)on2)cc1[C@@H]1CCN(c2cncc(C(N)=O)c2)C1 [Example 4, (S)-5-(3-(2-methyl-5-((5-(1,1,1-trifluoro-2-methylpropan-2-yl)isoxazol-3-yl)carbamoyl)phenyl)pyrrolidin-1-yl)nicotinamide]	< 5	< 5
Cc1ccc(C(=O)Nc2cc(C(C)(C)C)nn2C)cc1[C@@H]1CCN(c2cncc(C(N)=O)c2)C1 [Example 5, (S)-5-(3-(5-((3-(tert-butyl)-1-methyl-1H-pyrazol-5-yl)carbamoyl)-2-methylphenyl)pyrrolidin-1-yl)nicotinamide]	< 5	5 to 25
Cc1ccc(C(=O)Nc2cc(C(C)(C)C)no2)cc1[C@@H]1CCN(c2cncc(C(N)=O)c2)C1 [Example 6, (S)-5-(3-(5-((3-(tert-butyl)isoxazol-5-yl)carbamoyl)-2-methylphenyl)pyrrolidin-1-yl)nicotinamide]	< 5	< 5
Cc1ccc(C(=O)Nc2cc(C(C)(C)C)no2)cc1[C@@H]1CCN(c2cncc(C#N)c2)C1 [Example 7, (S)—N-(3-(tert-butyl)isoxazol-5-yl)-3-(1-(5-cyanopyridin-3-yl)pyrrolidin-3-yl)-4-methylbenzamide]	< 5	5 to 25
Cc1ccc(C(=O)Nc2cc(OC(F)(F)F)ccn2)cc1[C@@H]1CCN(c2cncc(C(N)=O)c2)C1 [Example 9, (S)-5-(3-(2-methyl-5-((4-(trifluoromethoxy)pyridin-2-yl)carbamoyl)phenyl)pyrrolidin-1-yl)nicotinamide]	< 5	< 5
